Data on three compounds can be found in ChEMBL document CHEMBL1201862, “PubChem BioAssay data set” (2004).

What is called Ki is a measure of affinity in units of concentration, obtained from inhibition or displacement.

Activity calls are given as the source filed them.

What all share (type): functional
Assay [1] addresses Death-associated protein kinase 3 (Homo sapiens, UniProt O43293).
Assay [2] has as its target T1, Aurora kinase A (Homo sapiens, UniProt O14965).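 Note: value from the Navigating the Kinome kinase panel profiling, panel entry STK6.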
T1 sequence (O14965 whole entry): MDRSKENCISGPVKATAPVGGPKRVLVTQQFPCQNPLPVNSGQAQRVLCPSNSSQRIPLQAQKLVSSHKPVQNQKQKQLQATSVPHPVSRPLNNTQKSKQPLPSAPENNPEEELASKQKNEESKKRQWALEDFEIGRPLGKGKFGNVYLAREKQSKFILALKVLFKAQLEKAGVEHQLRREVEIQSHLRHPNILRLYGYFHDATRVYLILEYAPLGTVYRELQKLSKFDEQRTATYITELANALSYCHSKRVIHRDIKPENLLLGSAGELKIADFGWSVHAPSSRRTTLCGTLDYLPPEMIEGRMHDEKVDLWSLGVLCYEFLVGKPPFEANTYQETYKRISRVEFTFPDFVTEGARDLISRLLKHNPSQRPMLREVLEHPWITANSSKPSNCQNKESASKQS

Assay [3] concerns the target Cyclin-dependent kinase 9 (Homo sapiens, UniProt P50750).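 Note: value from the CDK9 entry of a kinome-spanning kinase panel.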
In assay [4] the target is Cyclin-dependent kinase 7 (Homo sapiens, UniProt P50613).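 Note: value comes from a kinome-wide kinase profiling panel in which CDK7 is one member.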
Assay [5] addresses ALK tyrosine kinase receptor (Homo sapiens, UniProt Q9UM73).
Assay [6] concerns the target Leucine-rich repeat serine/threonine-protein kinase 2 (Homo sapiens, UniProt Q5S007).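 Note: value from a broad kinome-wide panel profiling study in which LRRK2 was one of the kinases tested.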
In assay [7] the target is T2, Serine/threonine-protein kinase TAO1 (Homo sapiens, UniProt Q7L7X3).
T2 sequence (Q7L7X3 whole entry): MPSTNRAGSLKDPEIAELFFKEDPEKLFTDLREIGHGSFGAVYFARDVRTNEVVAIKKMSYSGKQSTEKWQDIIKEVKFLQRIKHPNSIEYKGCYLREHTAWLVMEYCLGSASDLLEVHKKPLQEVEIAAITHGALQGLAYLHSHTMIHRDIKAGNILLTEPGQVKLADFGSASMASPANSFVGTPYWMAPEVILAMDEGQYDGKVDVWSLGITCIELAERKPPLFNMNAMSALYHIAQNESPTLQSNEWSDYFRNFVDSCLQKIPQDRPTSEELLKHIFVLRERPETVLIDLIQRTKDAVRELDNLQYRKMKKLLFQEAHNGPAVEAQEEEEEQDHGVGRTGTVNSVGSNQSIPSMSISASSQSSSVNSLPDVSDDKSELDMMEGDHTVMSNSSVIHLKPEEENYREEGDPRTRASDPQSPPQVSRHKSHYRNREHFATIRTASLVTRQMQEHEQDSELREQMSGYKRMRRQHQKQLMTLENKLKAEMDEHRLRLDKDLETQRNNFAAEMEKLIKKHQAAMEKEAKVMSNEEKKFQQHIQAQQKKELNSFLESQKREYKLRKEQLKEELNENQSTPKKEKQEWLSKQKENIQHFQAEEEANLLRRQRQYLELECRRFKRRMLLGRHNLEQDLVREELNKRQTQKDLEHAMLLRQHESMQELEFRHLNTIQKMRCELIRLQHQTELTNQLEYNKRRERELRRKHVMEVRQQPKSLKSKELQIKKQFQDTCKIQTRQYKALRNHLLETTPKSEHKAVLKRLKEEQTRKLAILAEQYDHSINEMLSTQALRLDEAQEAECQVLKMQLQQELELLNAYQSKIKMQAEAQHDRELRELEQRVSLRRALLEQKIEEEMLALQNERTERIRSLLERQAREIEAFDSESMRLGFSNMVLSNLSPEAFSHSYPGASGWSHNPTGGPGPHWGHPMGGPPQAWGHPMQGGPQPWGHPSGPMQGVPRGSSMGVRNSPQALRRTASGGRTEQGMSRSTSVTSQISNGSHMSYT

Assay [8] has as its target Dual specificity mitogen-activated protein kinase kinase 1 (Homo sapiens, UniProt Q02750). Nature of the assay: Navigating the Kinome. Panel member name: MAP2K1.
Assay [9] has as its target Glycogen synthase kinase-3 beta (Homo sapiens, UniProt P49841).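 Note: value comes from a broad kinome profiling panel, with GSK3B as the panel member.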
For assay [10], the target named is Insulin-like growth factor 1 receptor (Homo sapiens, UniProt P08069). Briefly: Navigating the Kinome. Panel member name: IGF1R.
For assay [11], the target named is T3, Activin receptor type-1 (Homo sapiens, UniProt Q04771).
T3 sequence (Q04771 whole entry): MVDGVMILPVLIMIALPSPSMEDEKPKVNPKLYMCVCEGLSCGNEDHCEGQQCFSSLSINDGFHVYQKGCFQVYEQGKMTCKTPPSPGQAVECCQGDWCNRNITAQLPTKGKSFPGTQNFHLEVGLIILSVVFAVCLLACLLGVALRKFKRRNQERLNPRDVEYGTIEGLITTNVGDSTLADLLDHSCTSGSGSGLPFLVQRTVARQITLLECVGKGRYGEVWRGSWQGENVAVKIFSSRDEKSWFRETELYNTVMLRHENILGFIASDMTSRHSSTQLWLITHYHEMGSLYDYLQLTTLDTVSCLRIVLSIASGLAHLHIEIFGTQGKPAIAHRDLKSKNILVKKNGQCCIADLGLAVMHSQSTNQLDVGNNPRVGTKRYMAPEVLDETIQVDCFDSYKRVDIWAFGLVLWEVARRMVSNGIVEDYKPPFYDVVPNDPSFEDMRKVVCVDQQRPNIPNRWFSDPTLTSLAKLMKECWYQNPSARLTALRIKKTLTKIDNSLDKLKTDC
Nature of the assay: Navigating the Kinome. Panel member name: ACVR1.

Assay [12] deals with Tyrosine-protein kinase Fyn (Homo sapiens, UniProt P06241).
For assay [13], the target named is Fibroblast growth factor receptor 1 (Homo sapiens, UniProt P11362).
Assay [14] concerns the target Glycogen synthase kinase-3 alpha (Homo sapiens, UniProt P49840).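 Note: GSK3A result taken from a broad kinome-wide kinase panel.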

Sequence of Death-associated protein kinase 3 (O43293 whole entry): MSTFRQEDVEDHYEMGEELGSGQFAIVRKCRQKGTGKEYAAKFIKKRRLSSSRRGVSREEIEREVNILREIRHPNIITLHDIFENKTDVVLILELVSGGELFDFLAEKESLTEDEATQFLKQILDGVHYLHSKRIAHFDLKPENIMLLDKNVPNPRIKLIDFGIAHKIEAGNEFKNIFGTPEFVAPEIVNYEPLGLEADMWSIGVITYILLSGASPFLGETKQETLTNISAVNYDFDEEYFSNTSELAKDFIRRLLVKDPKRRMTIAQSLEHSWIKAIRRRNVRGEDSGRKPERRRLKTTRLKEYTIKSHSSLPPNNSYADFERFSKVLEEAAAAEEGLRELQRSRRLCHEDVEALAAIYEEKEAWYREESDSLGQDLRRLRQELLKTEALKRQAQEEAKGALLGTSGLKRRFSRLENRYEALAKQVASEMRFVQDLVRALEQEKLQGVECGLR
Sequence of ALK tyrosine kinase receptor (Q9UM73 whole entry): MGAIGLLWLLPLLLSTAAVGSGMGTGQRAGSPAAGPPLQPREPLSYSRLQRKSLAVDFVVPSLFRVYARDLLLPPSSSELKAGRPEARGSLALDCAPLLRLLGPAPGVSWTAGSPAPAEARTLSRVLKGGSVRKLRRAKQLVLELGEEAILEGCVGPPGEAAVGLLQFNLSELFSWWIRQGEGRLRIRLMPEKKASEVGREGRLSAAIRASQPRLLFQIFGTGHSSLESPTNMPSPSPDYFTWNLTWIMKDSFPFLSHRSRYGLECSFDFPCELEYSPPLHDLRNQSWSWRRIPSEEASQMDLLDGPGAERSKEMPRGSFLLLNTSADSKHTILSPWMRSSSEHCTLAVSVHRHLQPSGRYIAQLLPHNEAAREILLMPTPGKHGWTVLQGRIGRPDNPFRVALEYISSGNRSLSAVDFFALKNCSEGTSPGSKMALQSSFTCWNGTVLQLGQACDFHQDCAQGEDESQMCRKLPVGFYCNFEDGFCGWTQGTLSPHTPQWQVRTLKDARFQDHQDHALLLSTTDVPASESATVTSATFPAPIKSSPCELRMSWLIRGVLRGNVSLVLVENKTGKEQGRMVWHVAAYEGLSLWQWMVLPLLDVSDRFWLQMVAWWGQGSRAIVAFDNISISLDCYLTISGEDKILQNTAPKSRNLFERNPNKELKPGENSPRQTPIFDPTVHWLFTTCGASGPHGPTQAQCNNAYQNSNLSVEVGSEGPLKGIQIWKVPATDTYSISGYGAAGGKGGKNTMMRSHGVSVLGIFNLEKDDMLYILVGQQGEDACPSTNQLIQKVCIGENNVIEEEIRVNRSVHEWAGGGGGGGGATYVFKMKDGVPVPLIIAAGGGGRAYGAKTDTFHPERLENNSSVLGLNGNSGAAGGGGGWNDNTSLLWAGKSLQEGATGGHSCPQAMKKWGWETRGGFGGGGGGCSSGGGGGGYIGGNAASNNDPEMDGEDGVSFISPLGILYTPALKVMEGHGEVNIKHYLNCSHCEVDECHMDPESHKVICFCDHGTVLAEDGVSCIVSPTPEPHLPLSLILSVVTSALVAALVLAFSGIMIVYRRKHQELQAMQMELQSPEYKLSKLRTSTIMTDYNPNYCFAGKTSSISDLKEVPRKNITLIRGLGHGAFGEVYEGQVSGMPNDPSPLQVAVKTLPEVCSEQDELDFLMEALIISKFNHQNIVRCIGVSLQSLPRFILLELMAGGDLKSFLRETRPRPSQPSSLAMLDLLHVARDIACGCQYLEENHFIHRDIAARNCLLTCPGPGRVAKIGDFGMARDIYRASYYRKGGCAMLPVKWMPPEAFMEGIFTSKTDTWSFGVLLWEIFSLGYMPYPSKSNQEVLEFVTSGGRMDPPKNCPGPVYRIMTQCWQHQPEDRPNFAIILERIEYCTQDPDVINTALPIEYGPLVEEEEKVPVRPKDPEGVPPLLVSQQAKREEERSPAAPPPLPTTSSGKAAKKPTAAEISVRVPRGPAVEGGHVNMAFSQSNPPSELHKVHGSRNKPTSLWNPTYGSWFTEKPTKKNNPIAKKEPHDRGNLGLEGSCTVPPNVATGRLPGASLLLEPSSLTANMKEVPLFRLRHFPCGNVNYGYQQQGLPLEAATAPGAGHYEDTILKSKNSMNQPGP
Sequence of Insulin-like growth factor 1 receptor (P08069 31-736 limits assumed): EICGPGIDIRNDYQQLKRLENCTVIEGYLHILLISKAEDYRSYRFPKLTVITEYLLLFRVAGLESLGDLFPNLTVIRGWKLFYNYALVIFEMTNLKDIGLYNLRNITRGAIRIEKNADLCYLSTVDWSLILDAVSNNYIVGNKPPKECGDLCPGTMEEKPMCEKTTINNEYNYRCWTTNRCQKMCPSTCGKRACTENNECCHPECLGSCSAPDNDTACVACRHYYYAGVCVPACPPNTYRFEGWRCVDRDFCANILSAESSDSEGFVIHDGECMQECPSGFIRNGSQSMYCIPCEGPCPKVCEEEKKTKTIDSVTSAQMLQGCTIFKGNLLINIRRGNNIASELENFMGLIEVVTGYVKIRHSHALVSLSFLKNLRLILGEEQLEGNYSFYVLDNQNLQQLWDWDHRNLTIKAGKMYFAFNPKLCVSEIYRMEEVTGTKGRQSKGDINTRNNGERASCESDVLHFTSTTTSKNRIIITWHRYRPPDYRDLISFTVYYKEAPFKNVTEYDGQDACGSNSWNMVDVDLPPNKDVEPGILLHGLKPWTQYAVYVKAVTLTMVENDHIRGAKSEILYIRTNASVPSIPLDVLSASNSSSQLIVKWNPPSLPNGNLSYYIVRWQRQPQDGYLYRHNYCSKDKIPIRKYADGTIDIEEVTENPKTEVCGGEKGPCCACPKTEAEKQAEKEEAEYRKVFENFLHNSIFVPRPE
Sequence of Insulin-like growth factor 1 receptor (P08069 741-1367 limits assumed): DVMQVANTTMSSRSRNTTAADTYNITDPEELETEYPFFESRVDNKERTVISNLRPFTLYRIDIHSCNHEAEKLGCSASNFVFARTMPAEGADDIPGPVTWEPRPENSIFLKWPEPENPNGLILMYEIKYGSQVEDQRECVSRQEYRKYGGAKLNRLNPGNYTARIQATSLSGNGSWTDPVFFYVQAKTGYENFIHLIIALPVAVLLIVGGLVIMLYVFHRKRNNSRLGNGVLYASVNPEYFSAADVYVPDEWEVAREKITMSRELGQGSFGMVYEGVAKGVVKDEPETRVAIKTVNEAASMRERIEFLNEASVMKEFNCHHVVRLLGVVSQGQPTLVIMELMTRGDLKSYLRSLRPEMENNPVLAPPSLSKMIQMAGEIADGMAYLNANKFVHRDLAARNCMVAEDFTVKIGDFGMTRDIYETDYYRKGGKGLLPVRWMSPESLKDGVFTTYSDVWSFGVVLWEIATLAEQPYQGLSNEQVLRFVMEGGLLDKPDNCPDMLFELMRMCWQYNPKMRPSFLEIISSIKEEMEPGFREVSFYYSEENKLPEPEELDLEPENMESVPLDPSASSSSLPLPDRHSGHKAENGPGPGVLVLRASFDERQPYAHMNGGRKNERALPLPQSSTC
Sequence of Glycogen synthase kinase-3 beta (P49841 whole entry): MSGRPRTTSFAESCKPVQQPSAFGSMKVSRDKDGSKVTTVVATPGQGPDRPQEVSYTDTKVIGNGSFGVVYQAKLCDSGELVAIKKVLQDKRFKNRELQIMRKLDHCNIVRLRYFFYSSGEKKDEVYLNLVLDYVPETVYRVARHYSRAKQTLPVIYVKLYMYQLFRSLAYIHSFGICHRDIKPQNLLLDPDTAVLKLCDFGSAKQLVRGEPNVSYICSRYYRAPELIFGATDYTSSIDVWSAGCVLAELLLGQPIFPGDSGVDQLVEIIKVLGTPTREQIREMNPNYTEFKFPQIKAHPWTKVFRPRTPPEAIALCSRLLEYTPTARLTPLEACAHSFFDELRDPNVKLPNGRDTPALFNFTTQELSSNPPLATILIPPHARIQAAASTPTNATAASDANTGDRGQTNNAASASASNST
Sequence of Tyrosine-protein kinase Fyn (P06241 whole entry): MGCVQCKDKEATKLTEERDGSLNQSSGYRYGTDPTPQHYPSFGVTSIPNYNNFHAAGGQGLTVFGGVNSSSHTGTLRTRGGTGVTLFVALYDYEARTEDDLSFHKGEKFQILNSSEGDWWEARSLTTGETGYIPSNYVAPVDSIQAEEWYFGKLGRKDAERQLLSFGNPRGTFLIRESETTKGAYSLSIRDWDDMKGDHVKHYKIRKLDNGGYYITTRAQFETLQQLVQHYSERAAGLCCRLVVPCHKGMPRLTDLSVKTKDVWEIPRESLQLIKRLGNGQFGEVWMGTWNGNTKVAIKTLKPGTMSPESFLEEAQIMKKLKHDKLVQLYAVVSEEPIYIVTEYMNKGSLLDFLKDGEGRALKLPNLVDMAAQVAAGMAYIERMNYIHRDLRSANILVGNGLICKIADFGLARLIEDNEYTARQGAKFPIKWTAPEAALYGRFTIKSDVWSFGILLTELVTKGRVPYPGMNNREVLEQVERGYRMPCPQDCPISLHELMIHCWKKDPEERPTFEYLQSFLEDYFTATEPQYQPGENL
Sequence of Cyclin-dependent kinase 9 (P50750 whole entry): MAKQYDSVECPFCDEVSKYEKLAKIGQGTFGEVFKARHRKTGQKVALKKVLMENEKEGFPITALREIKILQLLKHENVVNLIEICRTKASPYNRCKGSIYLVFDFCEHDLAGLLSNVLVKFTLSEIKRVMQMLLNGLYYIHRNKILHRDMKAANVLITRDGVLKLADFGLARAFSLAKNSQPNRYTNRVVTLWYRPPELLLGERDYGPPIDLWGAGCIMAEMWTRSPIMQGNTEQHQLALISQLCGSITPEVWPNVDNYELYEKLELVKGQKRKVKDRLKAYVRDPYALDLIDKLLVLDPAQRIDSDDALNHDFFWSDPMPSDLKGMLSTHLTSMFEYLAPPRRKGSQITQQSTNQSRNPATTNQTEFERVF

On to `COc1cccc(C(C)NC(=O)c2sc(-c3ccncc3)nc2C)c1` (configuration not stated), for which the Ki was > 5.01 µM (inactive) in assay [1]; > 1.58 µM (inactive) in [2]; > 1.58 µM (inactive) in assay [3]; > 3.98 µM (inactive) in assay [4]; > 6.31 µM (inactive) in [5]; > 2.51 µM (inactive) in assay [6]. Further, the Ki in [7] was > 6.31 µM (inactive); in assay [8] it was > 3.16 µM (inactive); in [9], > 3.98 µM (inactive); in assay [10], > 2.51 µM (inactive); in assay [11], > 3.98 µM (inactive); in assay [12], > 6.31 µM (inactive). Moreover, the Ki in [13] and in [14] was > 3.98 µM (inactive) each time.

On to `CCCCC(=O)Nc1cc(-c2c[nH]c3ncccc23)cc(Cl)n1`, for which the Ki is > 3.16 µM (inactive) in [1]; > 1.58 µM (inactive) in assay [2]; > 1.58 µM (inactive) in assay [3]; > 3.98 µM (inactive) in assay [4]; > 6.31 µM (inactive) in [5]; > 2.51 µM (inactive) in [6]. For the same compound, the Ki was > 6.31 µM (inactive) in assay [7]; > 3.16 µM (inactive) in assay [8]; > 3.98 µM (inactive) in assay [9]; > 2.51 µM (inactive) in assay [10]; > 3.98 µM (inactive) in assay [11]; > 6.31 µM (inactive) in assay [12]. Besides, the Ki in assay [13] and in [14] was > 3.98 µM (inactive) each time.

Consider `Oc1ccc(-c2nc(-c3ccncc3)c(-c3ccc(F)cc3)[nH]2)cc1` [SB-202190], for which the Ki was > 5.01 µM (inactive) in assay [1]; > 1.58 µM (inactive) in [2]; > 1.58 µM (inactive) in [3]; > 3.98 µM (inactive) in assay [4]; > 6.31 µM (inactive) in assay [5]; > 2.51 µM (inactive) in assay [6]. Moreover, the Ki in assay [7] was > 6.31 µM (inactive); in [8], > 3.16 µM (inactive); in [9] it was > 2.51 µM (inactive); in assay [10] it was 1.26 µM (active); in [11], > 3.16 µM (inactive); in assay [12], > 6.31 µM (inactive). The Ki in assay [13] and in assay [14] was > 3.98 µM (inactive) throughout.
